Literature values as cited in PMC11354262 (International Journal of Molecular Sciences, 2024).

Tests used:
[1] = hydrolysis by enzymes in intestine and liver

logarithm of partition coefficient (log P): > 5
solubility in water: practically insoluble in water
lipid half-life [1]: about 25 min
SMILES: CCCCCCCCCCCCCCCC(=O)NCCO [PEA, Palmitoylethanolamide]
